Entries after “also recorded” stand apart in the source; their conditions may differ. Like-named read-outs stand apart in the source and are kept apart here.
Assays:
A431 (skin carcinoma) = experiment: MTT in vitro growth inhibition assay, A431; format: cell-based; settings: Homo sapiens; for inhibition at 25 µM: A-431, 25 µM of drug, 72 h, read-out: Percentage of Cell Growth Inhibition A431; for GI50: A-431, 72 h, 72 h drug exposure
[1] = system: MCF10A (normal breast cell line); experiment: MTT in vitro growth inhibition assay, MCF10A; format: cell-based; settings: Homo sapiens, MCF-10A; for inhibition at 25 µM: 25 µM of drug, 72 h, read-out: Percentage of Cell Growth Inhibition MCF10A; for GI50: normal breast cell line, 72 h drug exposure
[2] = system: Du145 (prostate carcinoma); experiment: MTT in vitro growth inhibition assay, Du145; format: cell-based; settings: Homo sapiens; for inhibition at 25 µM: DU-145, 25 µM of drug, 72 h, read-out: Percentage of Cell Growth Inhibition Du145; for GI50: DU-145, 72 h, 72 h drug exposure
BE2-C (neuroblastoma) = experiment: MTT in vitro growth inhibition assay, BE2-C; format: cell-based; settings: Homo sapiens, BE(2)-C, 72 h; for inhibition at 25 µM: 25 µM of drug, read-out: Percentage of Cell Growth Inhibition BE2-C; for GI50: 72 h drug exposure
[3] = system: A2780 (ovarian carcinoma); experiment: MTT in vitro growth inhibition assay, A2780; format: cell-based; settings: Homo sapiens; for inhibition at 25 µM: 25 µM of drug, 72 h, read-out: Percentage of Cell Growth Inhibition A2780; for GI50: 72 h drug exposure
SJ-G2 (glioblastoma) = experiment: MTT in vitro growth inhibition assay, SJ-G2; format: cell-based; settings: for inhibition at 25 µM: 25 µM of drug, 72 h, read-out: Percentage of Cell Growth Inhibition SJ-G2; for GI50: 72 h drug exposure
HT29 (colon carcinoma) = experiment: MTT in vitro growth inhibition assay, HT29; format: cell-based; settings: Homo sapiens; for inhibition at 25 µM: HT-29, 25 µM of drug, 72 h, read-out: Percentage of Cell Growth Inhibition HT29; for GI50: HT-29, 72 h drug exposure
MCF-7 (breast carcinoma) = experiment: MTT in vitro growth inhibition assay, MCF-7; format: cell-based; settings: Homo sapiens; for inhibition at 25 µM: MCF7, 25 µM of drug, 72 h, read-out: Percentage of Cell Growth Inhibition MCF-7; for GI50: MCF7, 72 h drug exposure
[4] = system: MIA (pancreatic carcinoma); experiment: MTT in vitro growth inhibition assay, MIA; format: cell-based; settings: for inhibition at 25 µM: 25 µM of drug, 72 h, read-out: Percentage of Cell Growth Inhibition MIA; for GI50: 72 h drug exposure
U87 (glioblastoma) = experiment: MTT in vitro growth inhibition assay, U87; format: cell-based; settings: for inhibition at 25 µM: 25 µM of drug, 72 h, read-out: Percentage of Cell Growth Inhibition U87; for GI50: 72 h drug exposure
[5] = system: SMA (spontaneous murine astrocytoma); experiment: MTT in vitro growth inhibition assay, SMA; format: cell-based; settings: Mus musculus; for inhibition at 25 µM: 25 µM of drug, 72 h, read-out: Percentage of Cell Growth Inhibition SMA; for GI50: 72 h drug exposure
[6] = system: panel of 11 cancer cell lines and one normal cell line; experiment: Cytotoxicity across the whole cell line panel (MTT); format: cell-based; settings: for activity at the initial screening concentration (to proceed to GI50 determination): 25 µM single dose
Text: With the desired bolinaquinone analogues 12–43 in hand, we examined their cytotoxicity against a panel of 11 tumour cell lines: HT29 (colon carcinoma), U87 and SJ-G2 (glioblastoma), MCF-7 (breast carcinoma), A2780 (ovarian carcinoma), H460 (lung carcinoma), A431 (skin carcinoma), Du145 (prostate carcinoma), BE2-C (neuroblastoma), MIA (pancreatic carcinoma), SMA (spontaneous murine astrocytoma) and a normal breast cell line (MCF10A). The inclusion of the MCF-10A cell line allowed a determination of a crude measure of relative toxicity while noting that the ultimate arbiter of toxicity requires in vivo evaluation. All analogues were initially screened at a 25 µM drug concentration.
Stock solutions were prepared as follows and stored at −20°C: drugs were stored as 40 mM solutions in DMSO. All cell lines were cultured in a humidified atmosphere 5% CO2 at 37°C. The cancer cell lines were maintained in Dulbecco's modified Eagle's medium (DMEM) (Trace Biosciences, Australia) supplemented with 10% fetal bovine serum, 10 mM sodium bicarbonate, penicillin (100 IU ml^−1), streptomycin (100 µg ml^−1) and glutamine (4 mM). The non-cancer MCF10A cell line was cultured in DMEM:F12 (1 : 1) cell culture media, 5% heat-inactivated horse serum, supplemented with penicillin (50 IU ml^−1), streptomycin (50 µg ml^−1), 20 mM Hepes, L-glutamine (2 mM), epidermal growth factor (20 ng ml^−1), hydrocortisone (500 ng ml^−1), cholera toxin (100 ng ml^−1) and insulin (10 ug ml^−1).
Cells in logarithmic growth were transferred to 96-well plates. Cytotoxicity was determined by plating cells in duplicate in 100 µl medium at a density of 2500–4000 cells per well. On day 0 (24 h after plating), when the cells were in logarithmic growth, 100 μl of medium with or without the test agent was added to each well. After 72 h, drug exposure growth inhibitory effects were evaluated using the MTT (3-[4,5-dimethylthiazol-2-yl]-2,5-diphenyl-tetrazolium bromide) assay and the absorbance read at 540 nm. Percentage growth inhibition was determined at a fixed drug concentration of 25 µM. A value of 100% is indicative of complete cell growth inhibition. Those analogues showing appreciable percentage growth inhibition underwent further dose–response analysis allowing for the calculation of a GI50 value. This value is the drug concentration at which cell growth is 50% inhibited based on the difference between the optical density values on day 0 and those at the end of drug exposure.

H460 (lung carcinoma) = experiment: MTT in vitro growth inhibition assay, H460; format: cell-based; settings: Homo sapiens; for inhibition at 25 µM: NCI-H460, 25 µM of drug, 72 h, read-out: Percentage of Cell Growth Inhibition H460; for GI50: NCI-H460, 72 h drug exposure
[7] = average over the cell line panel, read-out: average GI50
[8] = span over the cell line panel, read-out: GI50 values across the cell lines examined (range)

| SMILES | inhibition at 25 µM (A431 (skin carcinoma)) [%] | melting point [°C] | inhibition at 25 µM [1] [%] | inhibition at 25 µM [2] [%] | inhibition at 25 µM (BE2-C (neuroblastoma)) [%] | inhibition at 25 µM [3] [%] | inhibition at 25 µM (SJ-G2 (glioblastoma)) [%] | inhibition at 25 µM (HT29 (colon carcinoma)) [%] | inhibition at 25 µM (MCF-7 (breast carcinoma)) [%] | inhibition at 25 µM [4] [%] | inhibition at 25 µM (U87 (glioblastoma)) [%] | inhibition at 25 µM [5] [%] | activity at the initial screening concentration (to proceed to GI50 determination) [6] | inhibition at 25 µM (H460 (lung carcinoma)) [%] | GI50 (A431 (skin carcinoma)) [µM] | GI50 [1] [µM] | GI50 [2] [µM] | GI50 (BE2-C (neuroblastoma)) [µM] | GI50 [3] [µM] | GI50 (SJ-G2 (glioblastoma)) [µM] | also measured |
| --- | --- | --- | --- | --- | --- | --- | --- | --- | --- | --- | --- | --- | --- | --- | --- | --- | --- | --- | --- | --- | --- |
| COC1=CC(=O)C(OC)=C(c2cccc(OC)c2)C1=O [compound 19, 3-(3-Methoxyphenyl)-2,5-dimethoxycyclohexa-2,5-diene-1,4-diene] | 22 ± 2 | 72 to 75 | 15 ± 3 | 24 ± 6 | 70 ± 5 | 60 ± 11 | 26 ± 12 | 13 ± 4 | 36 ± 14 | 20 ± 6 | 20 ± 5 | 40 ± 8 | not sufficiently active | 19 ± 1 | – | – | – | – | – | – | – |
| COC1=CC(=O)C(OC)=C(c2cccc(OC)c2OC)C1=O [compound 22, 2,5-Dimethoxy-3-(2,3-dimethoxyphenyl)cyclohexa-2,5-diene-1,4-dione] | 35 ± 5 | 122 to 125 | 18 ± 2 | 23 ± 9 | 75 ± 8 | 44 ± 8 | 23 ± 10 | 15 ± 1 | 16 ± 10 | 24 ± 4 | 14 ± 8 | 31 ± 7 | not sufficiently active | 20 ± 2 | – | – | – | – | – | – | – |
| COC1=CC(=O)C(OC)=C(c2ccc(OC)c(OC)c2)C1=O [compound 23, 2,5-Dimethoxy-3-(3,4-dimethoxyphenyl)cyclohexa-2,5-diene-1,4-dione] | 95 ± 4 | 135 to 137 | 62 ± 4 | 81 ± 4 | > 100 | > 100 | > 100 | > 100 | > 100 | > 100 | > 100 | > 100 | – | 77 ± 4 | 13 ± 0.58 | 19 ± 1.3 | 13 ± 0.58 | 3 ± 0.35 | 3.8 ± 0.75 | 12 ± 0.67 | GI50 (HT29 (colon carcinoma)): 11 ± 0.17 µM; GI50 (MCF-7 (breast carcinoma)): 6.1 ± 1.1 µM; GI50 [4]: 4.8 ± 0.91 µM; GI50 (U87 (glioblastoma)): 9.5 ± 1.2 µM; GI50 [5]: 3.9 ± 0.54 µM; cytotoxicity spectrum across the panel [6]: broad-spectrum active; GI50 [6, 7]: 10.2 µM; GI50 [6, 8]: 3 to 15 µM; GI50 (H460 (lung carcinoma)): 15 ± 2 µM |
| COC1=CC(=O)C(OC)=C(c2ccc3ccccc3c2)C1=O [compound 24, 2,5-Dimethoxy-3-(naphthalene-3-yl)cycloheza-2,5-diene-1,4-dione] | < 10 | 137 to 139 | 13 ± 6 | 11 | 65 ± 20 | 54 ± 15 | 20 ± 4 | < 10 | 22 ± 6 | < 10 | 15 ± 4 | 31 ± 10 | not sufficiently active; also recorded: inactive | 12 ± 4 | – | – | – | – | – | – | – |
| COC1=CC(=O)C(OC)=C(c2cc3ccccc3s2)C1=O [compound 26, 3-(Benzo[b]thiophen-2-yl)-2,5-dimethoxycyclohexa-2,5-diene-1,4-dione] | 75 ± 1 | 205 to 207 | 65 ± 4 | 66 ± 5 | 72 ± 3 | 61 ± 1 | 42 ± 3 | 70 ± 2 | 79 ± 4 | 59 ± 2 | 42 ± 5 | 60 ± 3 | not sufficiently active; also recorded: did not proceed to GI50 determination | 49 ± 8 | – | – | – | – | – | – | – |
| COC1=CC(=O)C(OC)=C(c2ccc(-c3ccccc3)cc2)C1=O [compound 27, 3-Biphenyl-4-yl-2,5-dimethoxycyclohexa-2,5-diene-1,4-dione] | 78 ± 1 | 178 to 180 | 63 ± 1 | 57 ± 7 | 98 ± 4 | 70 ± 3 | 38 ± 3 | 76 ± 2 | 65 ± 2 | 70 ± 1 | 54 ± 5 | 61 ± 6 | – | 48 ± 3 | 5.7 ± 0.45 | 3.9 ± 0.1 | 4.1 ± 0.1 | 4.1 ± 0.1 | 4.3 ± 0.1 | 31 ± 0.9 | GI50 (HT29 (colon carcinoma)): 4.3 ± 0.1 µM; GI50 (MCF-7 (breast carcinoma)): 4 ± 0.1 µM; GI50 [4]: 4.5 ± 0.13 µM; GI50 (U87 (glioblastoma)): 19 ± 2.3 µM; GI50 [5]: 19 ± 4.2 µM; GI50 [6, 7]: 10.2 µM; GI50 [6, 8]: 3.9 to 19 µM; GI50 (H460 (lung carcinoma)): 19 ± 2.5 µM |
| COC1=CC(=O)C(OC)=C(c2cccc(-c3ccccc3)c2)C1=O [compound 28, 3-Biphenyl-3-yl-2,5-dimethoxycyclohexa-2,5-diene-1,4-dione] | < 10 | 172 to 174 | < 10 | 12 ± 1 | 59 ± 23 | 52 ± 17 | 18 ± 3 | 16 ± 2 | 27 ± 1 | < 10 | 12 ± 9 | 36 ± 8 | not sufficiently active; also recorded: did not proceed to GI50 determination | 12 ± 5 | – | – | – | – | – | – | cytotoxicity spectrum across the panel [6]: broad-spectrum active |
| CCCNC1=CC(=O)C(NCCC)=C(c2ccccc2-c2ccccc2)C1=O [compound 41, 3-(Biaryl-2-yl)-2,5-bis-(propylamino)cyclohexa-2,5-diene-1,4-dione] | 90 ± 1 | 177 to 179 | 83 ± 2 | 71 ± 2 | 74 ± 7 | 68 ± 2 | 60 ± 2 | 75 ± 2 | 70 ± 3 | 76 ± 1 | 82 ± 3 | 68 ± 6 | sufficient activity | 62 ± 1 | 2 ± 0.1 | 1.7 ± 0.2 | 1.9 ± 0.1 | 1.9 | 2 ± 0.1 | 3.5 ± 1 | GI50 (HT29 (colon carcinoma)): 1.9 µM; GI50 (MCF-7 (breast carcinoma)): 2 ± 0.1 µM; GI50 [4]: 1.9 µM; GI50 (U87 (glioblastoma)): 5.1 ± 1 µM; GI50 [5]: 3.3 ± 1 µM; potency enhancement over parent analogue ([6]; 41 vs parent 29, 43 vs parent 33, on introduction of amine substituents): greater than or equal to 20 fold; GI50 [6, 7]: 2.5 µM; GI50 (H460 (lung carcinoma)): 2.3 ± 0.1 µM |

Reference: article PMC5936891, “A focused library synthesis and cytotoxicity of quinones derived from the natural product bolinaquinone” (Royal Society Open Science, 2018)
